Assay results taken from US10988456B2, “O-aminoheteroaryl alkynyl-containing compound, preparation method therefor, and use thereof” (SHANGHAI INSTITUTE OF MATERIA MEDICA, CHINESE ACADEMY OF …, priority 2017, dated 2021).

Assays:
[1] = system: human gastric cancer SNU-16 xenografts; settings: mouse, in vivo
Description: (§1) The tumor tissue in the vigorous growth period was cut into 1.5 mm^3, and inoculated subcutaneously in the right axilla of nude mice under aseptic conditions. The diameter of the xenograft in nude mice was measured with a vernier caliper. The animals were randomly divided into groups when the average tumor volume was grown to about 190 mm^3. […] The diameter of the xenograft was measured twice a week during the entire experiment, and the body weight of the mice was weighed. The tumor volume (TV) was calculated as: TV=½×a×b^2, where a and b represented length and width, respectively. The relative tumor volume (RTV) was calculated based on the measured results, and the formula was: RTV=Vt/V0, wherein V0 represented the tumor volume obtained when the mice was divided and administered (i.e., d0), and Vt represented the tumor volume at each measurement. The anti-tumor activity evaluation index was the relative tumor proliferation rate T/C (%), and the calculation formula was as follows: T/C (%)=(TRTV/CRTV)×100%, wherein TRTV was TRV in treatment group; and CRTV was RTV in negative control group.

[2] = system: human gastric cancer SNU-16 xenografts; assay: Growth of subcutaneous xenografts of human gastric cancer SNU-16 in nude mice (comparative compounds study); settings: for relative tumor proliferation rate T/C: day 21; for Weight (g, mean ± SD): SNU-16 tumor-bearing mice
Description: as §1

CN1CCN(Cc2ccc(NC(=O)c3ccc(Cl)c(C#Cc4cccnc4)c3)cc2C(F)(F)F)CC1 [HuFGFR1-117]
toxicity / condition of the mice (in words) [1]: dry skin, molting, and poor condition
Relative tumor volume RTV (mean ± SD) ([2]; SNU-16, 20 mg/kg orally once a day, d0): 1.00 ± 0.00
Relative tumor volume RTV (mean ± SD) ([2]; SNU-16, 20 mg/kg orally once a day, d3): 1.51 ± 0.37
Relative tumor volume RTV (mean ± SD) ([2]; SNU-16, 20 mg/kg orally once a day, d7): 1.75 ± 0.47
Relative tumor volume RTV (mean ± SD) ([2]; SNU-16, 20 mg/kg orally once a day, d10): 1.49 ± 0.14
Relative tumor volume RTV (mean ± SD) ([2]; SNU-16, 20 mg/kg orally once a day, d14): 2.06 ± 0.38
Relative tumor volume RTV (mean ± SD) ([2]; SNU-16, 20 mg/kg orally once a day, d17): 2.55 ± 0.55
Relative tumor volume RTV (mean ± SD) ([2]; SNU-16, 20 mg/kg orally once a day, d21): 2.78 ± 0.58
relative tumor proliferation rate T/C ([2]; SNU-16, 20 mg/kg orally once a day): 47.88%
animal deaths ([2]; SNU-16, 100 mg/kg group): one mouse died on the 9th and 10th day respectively
Relative tumor volume RTV (mean ± SD) ([2]; SNU-16, 100 mg/kg orally once a day (administration interrupted), d0): 1.00 ± 0.00
Relative tumor volume RTV (mean ± SD) ([2]; SNU-16, 100 mg/kg orally once a day (administration interrupted), d3): 1.53 ± 0.39
Relative tumor volume RTV (mean ± SD) ([2]; SNU-16, 100 mg/kg orally once a day (administration interrupted), d7): 0.80 ± 0.18
Relative tumor volume RTV (mean ± SD) ([2]; SNU-16, 100 mg/kg orally once a day (administration interrupted), d10): 0.49 ± 0.08
Relative tumor volume RTV (mean ± SD) ([2]; SNU-16, 100 mg/kg orally once a day (administration interrupted), d14): 0.51 ± 0.19
Relative tumor volume RTV (mean ± SD) ([2]; SNU-16, 100 mg/kg orally once a day (administration interrupted), d17): 0.75 ± 0.22
Relative tumor volume RTV (mean ± SD) ([2]; SNU-16, 100 mg/kg orally once a day (administration interrupted), d21): 0.83 ± 0.31
relative tumor proliferation rate T/C ([2]; SNU-16, 100 mg/kg orally, administration interrupted): 14.38%
weight of the tumor-bearing mice (in words) ([2]; SNU-16, HuFGFR1-113 at 20 mg/kg, HuFGFR1-117 dose not stated): significantly decreased
Weight (g, mean ± SD) ([2]; 20 mg/kg orally once a day, d0): 22.5 ± 1.9 g
Weight (g, mean ± SD) ([2]; 20 mg/kg orally once a day, d3): 23.6 ± 2.1 g
Weight (g, mean ± SD) ([2]; 20 mg/kg orally once a day, d7): 22.7 ± 2.0 g
Weight (g, mean ± SD) ([2]; 20 mg/kg orally once a day, d10): 22.7 ± 2.3 g
Weight (g, mean ± SD) ([2]; 20 mg/kg orally once a day, d14): 23.6 ± 2.4 g
Weight (g, mean ± SD) ([2]; 20 mg/kg orally once a day, d17): 24.2 ± 2.5 g
Weight (g, mean ± SD) ([2]; 20 mg/kg orally once a day, d21): 24.7 ± 2.3 g
Weight (g, mean ± SD) ([2]; 100 mg/kg orally once a day (administration interrupted), d0): 23.6 ± 0.7 g
Weight (g, mean ± SD) ([2]; 100 mg/kg orally once a day (administration interrupted), d3): 24.4 ± 1.8 g
Weight (g, mean ± SD) ([2]; 100 mg/kg orally once a day (administration interrupted), d7): 21.1 ± 1.9 g
Weight (g, mean ± SD) ([2]; 100 mg/kg orally once a day (administration interrupted), d10): 17.6 ± 1.8 g
Weight (g, mean ± SD) ([2]; 100 mg/kg orally once a day (administration interrupted), d14): 19.7 ± 2.0 g
Weight (g, mean ± SD) ([2]; 100 mg/kg orally once a day (administration interrupted), d17): 22.6 ± 1.5 g
Weight (g, mean ± SD) ([2]; 100 mg/kg orally once a day (administration interrupted), d21): 23.0 ± 2.4 g
